Read-outs that look alike come from different tables or passages of the source.
How the values were obtained:
Assay in all cases: in vitro antibacterial activity, agar dilution method (MIC)
Type in all cases: cell-based
[1] = test system: Pseudomonas Cepacia; conditions: Burkholderia cepacia; strain 296I; BHI agar, 20-24 hours; read-out: MIC
Description: (§1) Compounds 1 to 8 were evaluated for antibacterial activity by the agar dilution method to determine the degree of in vitro susceptibility of aerobic microorganisms to antimicrobial agents. The test medium was Brain Heart Infusion (BHI) agar. The antibacterial agent was dissolved at a concentration of 2,000 ug/mL. Test plates were then prepared, usually 12 two-fold dilutions. After adding the sample to the plates, 10 mL of cooled BHI agar medium was added to each plate. The organisms were grown overnight in BHI broth (Difco) in a 35°-37° C. incubator.
(§2) On the day of testing, the bacterial suspensions were diluted 1:100 in sterile distilled water, except for a few slow-growing organisms (usually Micrococcus and Streptococcus) which were diluted 1:10. The plate was then inoculated with approximately 10^4 organisms. This was incubated in a 35°-37° C. incubator for 20-24 hours. Thereafter, the plates were read to determine the minimum inhibitory concentration (MIC) defined as the lowest concentration of drug yielding no growth on the plate, a slight haze, or sparsely isolated colonies on the inoculum spot as compared to the growth control.

[2] = test system: Escherichia Coli; conditions: BHI agar, 20-24 hours
Description: as §1, §2

[3] = test system: Haemophilus Influenzae; conditions: BHI agar, 20-24 hours
Description: (§3) The test medium was Brain Heart Infusion (BHI) agar. The antibacterial agent was dissolved at a concentration of 2,000 ug/mL. Test plates were then prepared, usually 12 two-fold dilutions. After adding the sample to the plates, 10 mL of cooled BHI agar medium was added to each plate. The organisms were grown overnight in BHI broth (Difco) in a 35°-37° C. incubator.
as §2

[4] = test system: Staphylococcus Epidermidis; conditions: Staphylococcus epidermidis, strain 3519; BHI agar, 20-24 hours; read-out: MIC
Description: as §3, §2

[5] = test system: Acinetobacter Sp; conditions: Acinetobacter, strain CMX 669; BHI agar, 20-24 hours; read-out: MIC
Description: as §3, §2

[6] = test system: Micrococcus Luteus; conditions: Micrococcus luteus, BHI agar, 20-24 hours, read-out: MIC
Description: as §3, §2

[7] = test system: Streptococcus Pyogenes; conditions: Streptococcus pyogenes, BHI agar, 20-24 hours, read-out: MIC
Description: as §3, §2

[8] = test system: Staphylococcus Aureus; conditions: Staphylococcus aureus
Description: as §3, §2

[9] = test system: Klebsiella Pneumoniae; conditions: Klebsiella pneumoniae, ATCC8045, strain ATCC 8045; BHI agar, 20-24 hours; read-out: MIC
Description: as §3, §2

[10] = test system: Streptococcus Bovis; conditions: Streptococcus equinus, strain A5169, BHI agar, 20-24 hours
Description: as §3, §2

[11] = test system: Pseudomonas Aeruginosa; conditions: Pseudomonas aeruginosa, BHI agar, 20-24 hours, read-out: MIC
Description: as §3, §2

[12] = test system: Enterobacter Aerogenes; conditions: Klebsiella aerogenes, ATCC13048, strain ATCC 13048; BHI agar, 20-24 hours; read-out: MIC
Description: as §3, §2

[13] = test system: Streptococcus Agalactiae; conditions: Streptococcus agalactiae, strain CMX 508; BHI agar, 20-24 hours; read-out: MIC
Description: as §3, §2

[14] = test system: Providencia Stuartii; conditions: Providencia stuartii; strain CMX 640; BHI agar, 20-24 hours; read-out: MIC
Description: as §3, §2

[15] = test system: Enterococcus Faecium; conditions: Enterococcus faecium, ATCC8043, strain ATCC 8043; BHI agar, 20-24 hours; read-out: MIC
Description: as §3, §2

[16] = Escherichia coli, strain DC-2, read-out: MIC
[17] = Escherichia coli, strain JUHL, read-out: MIC
[18] = Escherichia coli, strain KNK 437, read-out: MIC
[19] = Escherichia coli, strain SS, read-out: MIC
[20] = Haemophilus influenzae, ATCC9795, strain ATCC 9795, read-out: MIC
[21] = Haemophilus influenzae, ATCC10211, strain ATCC 10211, read-out: MIC
[22] = Haemophilus influenzae, ATCC19418, strain ATCC 19418, read-out: MIC
[23] = Haemophilus influenzae, strain 504, read-out: MIC
[24] = Haemophilus influenzae, strain 519A, read-out: MIC
[25] = Haemophilus influenzae, strain 566A, read-out: MIC
[26] = Haemophilus influenzae, strain 632A, read-out: MIC
[27] = Haemophilus influenzae, strain 747C, read-out: MIC
[28] = Haemophilus influenzae, strain 1177, read-out: MIC
[29] = Haemophilus influenzae, strain 1435, read-out: MIC
[30] = Haemophilus influenzae, strain DILL AMP R, read-out: MIC
[31] = Haemophilus influenzae, strain SOL AMP R, read-out: MIC
[32] = Haemophilus influenzae, strain SPK AMP R, read-out: MIC
[33] = ATCC6538P, strain ATCC 6538P, BHI agar, 20-24 hours, read-out: MIC
[34] = NCTC10649, strain NCTC 10649, BHI agar, 20-24 hours, read-out: MIC
[35] = strain 45, BHI agar, 20-24 hours, read-out: MIC
[36] = strain 45 RAR2, BHI agar, 20-24 hours, read-out: MIC
[37] = strain 642A, BHI agar, 20-24 hours, read-out: MIC
[38] = strain A5177, BHI agar, 20-24 hours, read-out: MIC
[39] = strain CMX 553, BHI agar, 20-24 hours, read-out: MIC
[40] = Escherichia coli, strain H560, read-out: MIC
[41] = Haemophilus influenzae, ATCC43095, strain ATCC 43095, read-out: MIC
[42] = Haemophilus influenzae, strain 588A, read-out: MIC
[43] = Haemophilus influenzae, strain 751

Measured: MIC

CCC1OC(=O)CC(O)C(C)C(OC2OC(C)C(O)C(N(C)C)C2O)C(CC=O)CC(C)C(N(C)C)CCC(C)=CC1COC(C)=O (centres unmarked) [Example 6, [9R]-23-O-Acetyl-9-deoxo-10,11-dihydro-9-N,N-dimethylamino-5-O-mycaminosyl-tylonide]
> 100 µg/mL: [1] | [2]; [17] | [2]; [18] | [5] | [7]; strain 930 CONST | [9] | [11]; strain A5007 | [11]; strain BMH10 | [11]; strain K799/WT | [12] | [14]
> 16 µg/mL: [3]; Haemophilus influenzae, strain 751, read-out: MIC
1.56 µg/mL: [2]; [19] | [6]; ATCC4698, strain ATCC 4698 | [15]
0.1 µg/mL: [10]; read-out: MIC
4 µg/mL: [3]; [20] | [3]; [21] | [3]; [29] | [3]; [30]
8 µg/mL: [3]; [22] | [3]; [25] | [3]; [26] | [3]; [27] | [3]; [31] | [3]; [32] | [3]; strain 503B | [3]; strain ATCC 43095
3.1 µg/mL: [4] | [7]; strain 2548 INDUC | [8]; [33] | [8]; [34] | [8]; [35] | [8]; [38]
2 µg/mL: [3]; [23] | [3]; [24]
0.39 µg/mL: [7]; strain EES61 | [13]
100 µg/mL: [2]; [16]
50 µg/mL: [2]; strain H560
0.78 µg/mL: [6]; ATCC9341, strain ATCC 9341
0.25 µg/mL: [3]; [28]
6.2 µg/mL: [8]; [36] | [8]; [37] | [8]; [39] | [11]; strain K799/61

CCC1OC(=O)CC(O)C(C)C(OC2OC(C)CC(N(C)C)C2O)C(CC=O)CC(C)C(N(C)C)CCC(C)=CC1COC(C)=O (centres unmarked) [Example 8, [9S]-23-O-Acetyl-9-deoxo-4'-deoxy-10,11-dihydro-9-N,N-dimethylamino-5-O-mycaminosyl-tylonide]
0.2 µg/mL: [2]; [19] | [6]; ATCC9341, strain ATCC 9341
25 µg/mL: [2]; [16] | [2]; [18]
0.25 µg/mL: [3]; [28]
3.1 µg/mL: [8]; [33] | [8]; [35] | [8]; [36] | [8]; [37] | [8]; [39]
2 µg/mL: [3]; [20] | [3]; [21] | [3]; [22] | [3]; [41] | [3]; Haemophilus influenzae, strain 503B, read-out: MIC | [3]; [23] | [3]; [25] | [3]; [42] | [3]; [26] | [3]; Haemophilus influenzae, strain 667A, read-out: MIC | [3]; [27] | [3]; [30] | [3]; [31] | [3]; [32]
50 µg/mL: [2]; [17] | [7]; strain 930 CONST | [9] | [12]
6.2 µg/mL: [2]; [40] | [11]; strain K799/61
0.78 µg/mL: [6]; ATCC4698, strain ATCC 4698 | [7]; strain EES61 | [8]; [34]
0.39 µg/mL: [13]
8 µg/mL: [3]; [43]
1.56 µg/mL: [4] | [7]; strain 2548 INDUC | [8]; [38] | [15]
> 100 µg/mL: [1] | [11]; strain A5007 | [11]; strain BMH10 | [11]; strain K799/WT | [14]
0.1 µg/mL: [10]
12.5 µg/mL: [5]
1 µg/mL: [3]; Haemophilus influenzae, strain 519A | [3]; Haemophilus influenzae, strain 1435

CC[C@H]1OC(=O)C[C@@H](O)[C@H](C)[C@@H](O[C@@H]2O[C@H](C)C[C@H](N(C)C)[C@H]2O)[C@@H](CC=O)C[C@@H](C)C(=O)/C=C/[C@]2(C)O[C@H]2[C@@H]1C [Rosaramicin, 5-O-(4'-deoxy-mycaminosyl)-12,13-epoxy-23-deoxy-tylonide, reference compound]
12.5 µg/mL: [2]; [16] | [2]; [17] | [5] | [9]
0.12 µg/mL: [3]; [28]
25 µg/mL: [1] | [2]; [18] | [11]; strain K799/WT | [12]
6.2 µg/mL: [2]; [40]
0.39 µg/mL: [4] | [7]; strain 2548 INDUC | [8]; ATCC6538P | [8]; [34] | [8]; [35] | [8]; [36] | [8]; [37] | [8]; [39] | [15]
100 µg/mL: [11]; strain A5007 | [14]
0.5 µg/mL: [3]; [21] | [3]; [41] | [3]; [24] | [3]; [42] | [3]; [27] | [3]; [29] | [3]; [30] | [3]; [31] | [3]; [32]
0.1 µg/mL: [6]; ATCC4698, strain ATCC 4698 | [7]; strain EES61
> 100 µg/mL: [7]; strain 930 CONST
0.78 µg/mL: [8]; [38] | [11]; strain K799/61
50 µg/mL: [11]; strain BMH10
1 µg/mL: [3]; Haemophilus influenzae, ATCC9795, strain ATCC 9795 | [3]; Haemophilus influenzae, ATCC19418, strain ATCC 19418 | [3]; Haemophilus influenzae, strain 503B | [3]; Haemophilus influenzae, strain 504 | [3]; Haemophilus influenzae, strain 566A | [3]; Haemophilus influenzae, strain 632A | [3]; Haemophilus influenzae, strain 667A | [3]; [43]
0.2 µg/mL: [2]; [19] | [13]

— patent publication US5140014A (Abbott Laboratories, priority 1989, dated 1992)
